In patent publication US20230019491A1, “PYRIMIDINE TBK/IKKe INHIBITOR COMPOUNDS AND USES THEREOF” (Merck Patent GmbH, priority 2017, published 2023):

Tests used:
TBK1 = target: T1, TBK1 (Homo sapiens, UniProt Q9UHD2); assay: TBK biochemical assay; settings: 10 point 1:4 dose response, 30 uM top concentration, 90 min at 25° C., LabChip EZ Reader II; read-out: TBK1_IC50
T1 sequence (Q9UHD2 1-729): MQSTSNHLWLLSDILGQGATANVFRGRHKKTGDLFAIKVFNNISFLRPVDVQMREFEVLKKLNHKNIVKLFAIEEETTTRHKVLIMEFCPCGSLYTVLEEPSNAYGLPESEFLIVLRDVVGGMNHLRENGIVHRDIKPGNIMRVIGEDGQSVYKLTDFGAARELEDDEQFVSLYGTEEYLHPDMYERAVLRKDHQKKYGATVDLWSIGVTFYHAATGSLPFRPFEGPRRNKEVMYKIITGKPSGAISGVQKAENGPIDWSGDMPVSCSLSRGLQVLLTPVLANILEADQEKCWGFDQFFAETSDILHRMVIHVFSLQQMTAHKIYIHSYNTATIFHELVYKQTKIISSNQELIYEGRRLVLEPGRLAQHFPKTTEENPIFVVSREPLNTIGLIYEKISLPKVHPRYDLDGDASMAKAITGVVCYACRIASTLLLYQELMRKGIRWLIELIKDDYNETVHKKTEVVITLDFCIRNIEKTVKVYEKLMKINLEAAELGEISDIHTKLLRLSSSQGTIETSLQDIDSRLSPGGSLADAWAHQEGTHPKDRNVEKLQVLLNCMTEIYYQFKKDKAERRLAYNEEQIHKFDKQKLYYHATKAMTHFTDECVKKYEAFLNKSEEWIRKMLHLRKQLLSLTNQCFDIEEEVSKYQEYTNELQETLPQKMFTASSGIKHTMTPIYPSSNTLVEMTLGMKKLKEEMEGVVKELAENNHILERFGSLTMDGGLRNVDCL
Summary of the method: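 Substrate and product were separated and quantified by microfluidic mobility-shift read (LabChip). 10 uM staurosporine served as the full-inhibition control, and the reference compound was tested from 1 uM final.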

IKKε = target: T2, IKKε (Homo sapiens, UniProt Q14164); assay: IKKε biochemical assay; settings: 10 point 1:4 dose response, 30 uM top concentration, 90 min at 25° C., LabChip EZ Reader II; read-out: IKKε_IC50
T2 sequence (Q14164 1-716): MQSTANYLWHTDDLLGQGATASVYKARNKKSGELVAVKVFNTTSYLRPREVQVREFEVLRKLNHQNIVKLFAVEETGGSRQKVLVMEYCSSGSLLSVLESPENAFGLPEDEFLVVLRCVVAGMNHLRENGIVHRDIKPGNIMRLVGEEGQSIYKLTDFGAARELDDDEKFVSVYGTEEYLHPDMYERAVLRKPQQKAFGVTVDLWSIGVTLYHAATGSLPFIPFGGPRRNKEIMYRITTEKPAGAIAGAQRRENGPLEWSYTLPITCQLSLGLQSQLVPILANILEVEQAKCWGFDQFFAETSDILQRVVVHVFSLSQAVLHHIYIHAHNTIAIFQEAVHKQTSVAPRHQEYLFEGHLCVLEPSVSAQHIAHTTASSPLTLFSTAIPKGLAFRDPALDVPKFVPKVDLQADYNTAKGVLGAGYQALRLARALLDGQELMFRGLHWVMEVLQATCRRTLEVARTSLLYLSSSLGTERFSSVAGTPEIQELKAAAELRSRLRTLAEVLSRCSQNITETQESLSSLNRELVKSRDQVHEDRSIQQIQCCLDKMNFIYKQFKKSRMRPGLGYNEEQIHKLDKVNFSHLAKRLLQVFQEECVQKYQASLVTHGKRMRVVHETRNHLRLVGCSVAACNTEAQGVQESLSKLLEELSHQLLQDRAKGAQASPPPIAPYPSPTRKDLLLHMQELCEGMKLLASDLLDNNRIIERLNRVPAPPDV
Summary of the method: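 Compounds in 1% DMSO final were incubated with IKKε enzyme and substrate at 25° C. for 90 min, then stopped. Substrate and product peaks were resolved by LabChip EZ Reader II mobility-shift read-out. Staurosporine at 10 uM final served as the full-inhibition control.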

Row | Compound | IC50 (TBK1) [nM] | IC50 (IKKε) [nM]
1 | CN1CCN(c2ccc(Nc3nccc(-c4ccc(OC5CCN(C)CC5(F)F)c(C#N)c4)n3)nc2)CC1 (stereo not drawn) [Example 85, 2-[(3,3-difluoro-1-methylpiperidin-4-yl)oxy]-5-(2-[[5-(4-methylpiperazin-1-yl)pyridin-2-yl]amino]pyrimidin-4-yl)benzonitrile] | 100 to 1000 | 100 to 1000
2 | C[C@@H](O)C(=O)N1CCC(Oc2ccc(-c3ccnc(Nc4cccnc4)n3)cc2C#N)C(F)(F)C1 (stereo partly drawn) [Example 206, 2-([33-difluoro-1-[(2R)-2-hydroxypropanoyl]piperidin-4-yl]oxy)-5-[2-[(pyridin-3-yl)amino]pyrimidin-4-yl]benzonitrile] | < 100 | < 100
3 | COc1nc(Nc2nccc(-c3ccc(OC4CCN(C(=O)c5cnco5)CC4)c(C#N)c3)n2)ccc1C(=O)N(C)C [Example 79, 6-([4-[3-cyano-4-([1-[(1,3-oxazol-5-yl)carbonyl]piperidin-4-yl]oxy)phenyl]pyrimidin-2-yl]amino)-2-methoxy-N,N-dimethylpyridine-3-carboxamide] | < 100 | < 100
4 | COc1nc(Nc2nccc(-c3ccc(OC4CCOCC4)c(C#N)c3)n2)ccc1C(=O)N1CCS(=O)(=O)CC1 [Example 5, 5-{2-[5-(1,1-Dioxo-thiomorpholine-4-carbonyl)-6-methoxy-pyridin-2-ylamino]-pyrimidin-4-yl}-2-(tetrahydro-pyran-4-yloxy)-benzonitrile] | < 100 | < 100
5 | COc1nc(Nc2nccc(-c3ccc(OC4CCOCC4)c(C#N)c3)n2)ccc1C(=O)N1C2COCC1CC(O)C2 (stereo not drawn) [Example 17, 5-(2-[[5-([7-hydroxy-3-oxa-9-azabicyclo[3.3.1]nonan-9-yl]carbonyl)-6-methoxypyridin-2-yl]amino]pyrimidin-4-yl)-2-(oxan-4-yloxy)benzonitrile] | < 100 | < 100
6 | COc1nc(Nc2nccc(-c3ccc(OC4CCNCC4(F)F)c(C#N)c3)n2)ccc1C(=O)N(C)C (stereo not drawn) [Example 76, 6-[(4-[3-cyano-4-[(3,3-difluoropiperidin-4-yl)oxy]phenyl]pyrimidin-2-yl)amino]-2-methoxy-N,N-dimethylpyridine-3-carboxamide] | < 100 | < 100
7 | COc1nc(Nc2nccc(-c3ccc(OC4CN(C)C4)c(C#N)c3)n2)ccc1C(=O)N(C)C [Example 69, 6-[(4-[3-cyano-4-[(1-methylazetidin-3-yl)oxy]phenyl]pyrimidin-2-yl)amino]-2-methoxy-N,N-dimethylpyridine-3-carboxamide] | 100 to 1000 | 100 to 1000
8 | C[C@H](O)C(=O)N1CCC(Oc2ccc(-c3ccnc(Nc4ccc(N5CCOCC5)cc4)n3)cc2C#N)C(F)(F)C1 (stereo partly drawn) [Example 216, 2-([3,3-difluoro-1-[(2S)-2-hydroxypropanoyl]piperidin-4-yl]oxy)-5-(2-[[4-(morpholin-4-yl)phenyl]amino]pyrimidin-4-yl)benzonitrile] | < 100 | < 100
9 | COc1cc(Nc2nccc(-c3ccc(OC4CCN(C(=O)C(C)O)CC4(F)F)c(C#N)c3)n2)ccn1 (stereo in doubt) [Example 327, 2-([3,3-difluoro-1-[(2S)-2-hydroxypropanoyl]piperidin-4-yl]oxy)-5-[2-[(2-methoxypyridin-4-yl)amino]pyrimidin-4-yl]benzonitrile] | < 100 | < 100

Other lines, results leading:

Row | IC50 (TBK1) [nM] | IC50 (IKKε) [nM] | Compound
10 | < 100 | < 100 | COc1nc(Nc2nccc(-c3ccc(OC4CCN(C(=O)[C@H](C)O)CC4(F)F)c(C#N)c3)n2)ccc1N1CCN(C)[C@H](C)C1 (stereo partly drawn) [Example 106, 2-[3,3-Difluoro-1-((S)-2-hydroxy-propionyl)-piperidin-4-yloxy]-5-{2-[5-((R)-3,4-dimethyl-piperazin-1-yl)-6-methoxy-pyridin-2-ylamino]-pyrimidin-4-yl}-benzonitrile]
11 | < 100 | < 100 | COc1nc(Nc2nccc(-c3ccc(OC4CCNCC4)c(C#N)c3)n2)ccc1N1CCN(C2COC2)CC1 [Example 185, 5-[2-({6-methoxy-5-[4-(oxetan-3-yl)piperazin-1-yl]pyridin-2-yl}amino)pyrimidin-4-yl]-2-(piperidin-4-yloxy)benzonitrile]
12 | < 100 | < 100 | COc1nc(Nc2nccc(-c3ccc(OC4CCN(C(=O)C(C)F)CC4(F)F)c(C#N)c3)n2)ccc1N1CCN(C2COC2)CC1 (stereo not drawn) [Example 259, 2-[3,3-Difluoro-1-(2-fluoro-propionyl)-piperidin-4-yloxy]-5-{2-[6-methoxy-5-(4-oxetan-3-yl-piperazin-1-yl)-pyridin-2-ylamino]-pyrimidin-4-yl}-benzonitrile]
13 | < 100 | < 100 | CC[C@H](O)C(=O)N1CCC(Oc2ccc(-c3ccnc(Nc4ccc(N5CCN(C6COC6)CC5)c(OC)n4)n3)cc2C#N)C(F)(F)C1 (stereo partly drawn) [Example 258, 2-[3,3-Difluoro-1-((S)-2-hydroxy-butyryl)-piperidin-4-yloxy]-5-{2-[6-methoxy-5-(4-oxetan-3-yl-piperazin-1-yl)-pyridin-2-ylamino]-pyrimidin-4-yl}-benzonitrile]
14 | < 100 | < 100 | COc1nc(Nc2nccc(-c3ccc(OC4CCN(C(=O)C5(O)CC5)CC4(F)F)c(C#N)c3)n2)ccc1C1CCN(C2COC2)CC1 (stereo not drawn) [Example 237, 2-[3,3-Difluoro-1-(1-hydroxy-cyclopropanecarbonyl)-piperidin-4-yloxy]-5-[2-(2-methoxy-1′-oxetan-3-yl-1′,2′,3′,4′,5′,6′-hexahydro-[3,4′]bipyridinyl-6-ylamino)-pyrimidin-4-yl]-benzonitrile]
15 | < 100 | < 100 | COc1nc(Nc2nccc(-c3ccc(OC4CCN(C(=O)[C@@H](C)O)CC4(F)F)c(C#N)c3)n2)ccc1C1CCN(C2COC2)CC1 (stereo partly drawn) [Example 330, 2-([3,3-difluoro-1-[(2R)-2-hydroxypropanoyl]piperidin-4-yl]oxy)-5-[2-([6-methoxy-5-[1-(oxetan-3-yl)piperidin-4-yl]pyridin-2-yl]amino)pyrimidin-4-yl]benzonitrile]
16 | < 100 | < 100 | COc1ccc(Nc2nccc(-c3ccc(OC4CCN(C(=O)[C@H](C)O)CC4(F)F)c(C#N)c3)n2)nc1OC (stereo partly drawn) [Example 211, 2-[3,3-Difluoro-1-((S)-2-hydroxy-propionyl)-piperidin-4-yloxy]-5-[2-(5,6-dimethoxy-pyridin-2-ylamino)-pyrimidin-4-yl]-benzonitrile]
17 | < 100 | < 100 | COc1nc(Nc2nccc(-c3ccc(OC4CCN(C(=O)[C@@H](O)CO)CC4(F)F)c(C#N)c3)n2)ccc1N1CCN(C2COC2)CC1 (stereo partly drawn) [Example 260, 2-[1-((S)-2,3-Dihydroxy-propionyl)-3,3-difluoro-piperidin-4-yloxy]-5-{2-[6-methoxy-5-(4-oxetan-3-yl-piperazin-1-yl)-pyridin-2-ylamino]-pyrimidin-4-yl}-benzonitrile]
18 | < 100 | < 100 | COc1nc(Nc2nccc(-c3ccc(O[C@@H]4CCN(C(=O)[C@H](C)O)C[C@H]4F)c(C#N)c3)n2)ccc1C1CCN(C2COC2)CC1 [Example 192, 2-[(3R,4R)-3-Fluoro-1-((S)-2-hydroxy-propionyl)-piperidin-4-yloxy]-5-[2-(2-methoxy-1′-oxetan-3-yl-1′,2′,3′,4′,5′,6′-hexahydro-[3,4′]bipyridinyl-6-ylamino)-pyrimidin-4-yl]-benzonitrile]
